Measured values taken from US9066861B2 (priority 2009, dated 2015).

Test: Assay (%) test of APIs in cream, stability study, HPLC method
Type: physicochemical
Method: The stability of the product is confirmed by the stability studies performed for 3/6 months as per ICH guidelines.
APIs-stability experiments were carried out (see tables 3-20) using several products that are representative of the present invention. Tests were carried out to observe (or measure as appropriate) the physical appearance of the product, the pH value and assay of the APIs over a period of time. […] Betamethasone Valerate—0.12% (w/w) • ii. Fluticasone Propionate—0.05% (w/w) • iii. Mometasone Furoate—0.1% (w/w) • iv. Dexamethasone Acetate—0.1% (w/w) • v. Hydrocortisone Acetate—1.0% (w/w) • vi. Clobetasol Propionate—0.05% (w/w) • vii. Beclomethasone Dipropionate—0.025% (w/w) • viii. Betamethasone Dipropionate—0.05% (w/w) wherein all percentages are with respect to the final formulation.
The product used for the Stability Studies tests contained approximately 10% extra APIs (overages).

Structure (SMILES): CC(=O)O[C@H]1C[C@@]2(C)[C@@H](C[C@@H](O)[C@H]3[C@@]4(C)CC[C@@H](O)[C@@H](C)[C@@H]4CC[C@@]32C)/C1=C(\CCC=C(C)C)C(=O)O [Fusidic acid]
- Assay (%) (in cream Batch No. HAS-01, 25° C. 60% RH, 1st Month): 108.50%
- Assay (%) (in cream Batch No. HAS-01, 25° C. 60% RH, 2nd Month): 108.44%
- Assay (%) (in cream Batch No. HAS-01, 25° C. 60% RH, 3rd Month): 108.36%
- Assay (%) (in cream Batch No. HAS-01, 30° C. 65% RH, 1st Month): 108.51%
- Assay (%) (in cream Batch No. HAS-01, 30° C. 65% RH, 2nd Month): 108.42%
- Assay (%) (in cream Batch No. HAS-01, 30° C. 65% RH, 3rd Month): 108.32%
- Assay (%) (in cream Batch No. HAS-01, 40° C. 75% RH, 1st Month): 108.48%
- Assay (%) (in cream Batch No. HAS-01, 40° C. 75% RH, 2nd Month): 108.34%
- Assay (%) (in cream Batch No. HAS-01, 40° C. 75% RH, 3rd Month): 108.20%
- Assay (%) (in cream Batch No. HAS-01, Freezthaw, 1st Month): 108.31%
- Assay (%) (in cream Batch No. HAS-01, Initial): 108.52%
- Assay (%) (in cream Batch No. HAS-01, Temperature cycling, 1st Month): 108.40%
- Assay (%) (in cream Batch No. SBV-01, 25° C. 60% RH, 1st Month): 108.54%
- Assay (%) (in cream Batch No. SBV-01, 25° C. 60% RH, 2nd Month): 108.42%
- Assay (%) (in cream Batch No. SBV-01, 25° C. 60% RH, 3rd Month): 108.40%
- Assay (%) (in cream Batch No. SBV-01, 30° C. 65% RH, 1st Month): 108.53%
- Assay (%) (in cream Batch No. SBV-01, 30° C. 65% RH, 2nd Month): 108.41%
- Assay (%) (in cream Batch No. SBV-01, 30° C. 65% RH, 3rd Month): 108.36%
- Assay (%) (in cream Batch No. SBV-01, 40° C. 75% RH, 1st Month): 108.46%
- Assay (%) (in cream Batch No. SBV-01, 40° C. 75% RH, 2nd Month): 108.16%
- Assay (%) (in cream Batch No. SBV-01, 40° C. 75% RH, 3rd Month): 108.11%
- Assay (%) (in cream Batch No. SBV-01, Freezthaw, 1st Month): 108.01%
- Assay (%) (in cream Batch No. SBV-01, Initial): 108.57%
- Assay (%) (in cream Batch No. SBV-01, Temperature cycling, 1st Month): 107.53%
- Assay (%) (in cream Batch No. SFB-01, 25° C. 60% RH, 1st Month): 108.22%
- Assay (%) (in cream Batch No. SFB-01, 25° C. 60% RH, 2nd Month): 108.18%
- Assay (%) (in cream Batch No. SFB-01, 25° C. 60% RH, 3rd Month): 108.15%
- Assay (%) (in cream Batch No. SFB-01, 30° C. 65% RH, 1st Month): 108.25%
- Assay (%) (in cream Batch No. SFB-01, 30° C. 65% RH, 2nd Month): 108.22%
- Assay (%) (in cream Batch No. SFB-01, 30° C. 65% RH, 3rd Month): 108.18%
- Assay (%) (in cream Batch No. SFB-01, 40° C. 75% RH, 1st Month): 108.25%
- Assay (%) (in cream Batch No. SFB-01, 40° C. 75% RH, 2nd Month): 108.20%
- Assay (%) (in cream Batch No. SFB-01, 40° C. 75% RH, 3rd Month): 108.12%
- Assay (%) (in cream Batch No. SFB-01, Freezthaw, 1st Month): 108.11%
- Assay (%) (in cream Batch No. SFB-01, Initial): 108.28%
- Assay (%) (in cream Batch No. SFB-01, Temperature cycling, 1st Month): 108.23%
- Assay (%) (in cream Batch No. SFC-01, 25° C. 60% RH, 1st Month): 108.64%
- Assay (%) (in cream Batch No. SFC-01, 25° C. 60% RH, 2nd Month): 108.52%
- Assay (%) (in cream Batch No. SFC-01, 25° C. 60% RH, 3rd Month): 108.48%
- Assay (%) (in cream Batch No. SFC-01, 25° C. 60% RH, 6th Month): 108.38%
- Assay (%) (in cream Batch No. SFC-01, 30° C. 65% RH, 1st Month): 108.53%
- Assay (%) (in cream Batch No. SFC-01, 30° C. 65% RH, 2nd Month): 108.31%
- Assay (%) (in cream Batch No. SFC-01, 30° C. 65% RH, 3rd Month): 108.26%
- Assay (%) (in cream Batch No. SFC-01, 30° C. 65% RH, 6th Month): 108.22%
- Assay (%) (in cream Batch No. SFC-01, 40° C. 75% RH, 1st Month): 108.56%
- Assay (%) (in cream Batch No. SFC-01, 40° C. 75% RH, 2nd Month): 108.36%
- Assay (%) (in cream Batch No. SFC-01, 40° C. 75% RH, 3rd Month): 108.21%
- Assay (%) (in cream Batch No. SFC-01, 40° C. 75% RH, 6th Month): 108.18%
- Assay (%) (in cream Batch No. SFC-01, Freezthaw, 1st Month): 108.21%
- Assay (%) (in cream Batch No. SFC-01, Initial): 108.68%
- Assay (%) (in cream Batch No. SFC-01, Temperature cycling, 1st Month): 108.10%
- Assay (%) (in cream Batch No. SFD-01, 25° C. 60% RH, 1st Month): 108.60%
- Assay (%) (in cream Batch No. SFD-01, 25° C. 60% RH, 2nd Month): 108.54%
- Assay (%) (in cream Batch No. SFD-01, 25° C. 60% RH, 3rd Month): 108.46%
- Assay (%) (in cream Batch No. SFD-01, 30° C. 65% RH, 1st Month): 108.63%
- Assay (%) (in cream Batch No. SFD-01, 30° C. 65% RH, 2nd Month): 108.52%
